# According to US20250368628A1, “METHODS AND COMPOUNDS FOR MODULATING INHERITED GENETIC DISEASES” (Design Therapeutics, Inc., priority 2022, published 2025):
# pEC50: −log10 of the molar value.
# Columns and labels:
# F35T cells = assay: Foci reduction in FECD (CAG10-Cy3 FISH, foci per nucleus); assay type: cell-based; conditions: F35T cells, 48 h treatment, foci per nucleus; read-out: FECD EC50, 48 h
# Outline: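 F35T cells, 5000 per well, were treated for 48 h at 37 °C, 5% CO2 in an 8-point dose response. Cells were then fixed in 4% PFA, permeabilized in 70% ethanol and hybridized overnight at 37 °C with a CAG10-Cy3 probe in 30% formamide/2×SSC. After DAPI staining, imaging gave foci per nucleus.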
# [1] = tested on: Myotonic Dystrophy 1 affected patient fibroblasts (Coriel GM04602; 1600 CTG repeats); assay: DM1 foci reduction assay (EC50 assay; CAG10-Cy3 FISH, foci per nucleus); assay type: cell-based; conditions: Homo sapiens, Fibroblast; DM1 patient fibroblasts, 48 h treatment, foci per nucleus; read-out: DM1 EC50, 48 h
# Outline: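 GM04602 DM1 patient fibroblasts (1600 CTG repeats) seeded 24 h, then treated 48 h at 37 °C with an 8-point 1:3 dose series from 3 μM. Cells PFA-fixed, ethanol-permeabilized and hybridized overnight with 5 nM CAG10-Cy3 probe, DAPI counterstained. Imaged at 20×, 4 fields per well, as average foci per nucleus.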
SMILES,pEC50 (F35T cells),pEC50 [1]
CC(=O)N1CCN(CC2CCN(C(=O)CCNC(=O)c3nc(NC(=O)c4cc(NC(=O)CCNC(=O)c5nc(NC(=O)CCCNC(=O)c6cc(NC(=O)c7nc(NC(=O)CCNC(=O)c8cc(NC(=O)c9nccn9C)cn8C)cn7C)cn6C)cn5C)cn4C)cn3C)CC2)CC1 [Compound B-128],> 7.00,6.30 to 7.00
CN1CCN(C2CCN(C(=O)CCNC(=O)c3nc(NC(=O)c4cc(NC(=O)CCNC(=O)c5nc(NC(=O)CCCNC(=O)c6cc(NC(=O)c7nc(NC(=O)CCNC(=O)c8cc(NC(=O)c9nccn9C)cn8C)cn7C)cn6C)cn5C)cn4C)cn3C)CC2)CC1 [Compound B-131],> 7.00,6.30 to 7.00
Cn1cc(NC(=O)c2nc(NC(=O)CCNC(=O)c3cc(NC(=O)c4nccn4C)cn3C)cn2C)cc1C(=O)NCCCC(=O)Nc1cn(C)c(C(=O)NCCC(=O)Nc2cc(C(=O)Nc3cn(C)c(C(=O)NCCC(=O)NCC#CC#Cc4ccc(N)cc4)n3)n(C)c2)n1 [Compound B-132],> 7.00,> 7.00
Cn1cc(NC(=O)c2nc(NC(=O)CCNC(=O)c3cc(NC(=O)c4nccn4C)cn3C)cn2C)cc1C(=O)NCCCC(=O)Nc1cn(C)c(C(=O)NCCC(=O)Nc2cc(C(=O)Nc3cn(C)c(C(=O)NCCC(=O)NCC#CC#Cc4ccccc4)n3)n(C)c2)n1 [Compound B-134],> 7.00,> 7.00
CN(C)c1ccc(C#CCNC(=O)CCNC(=O)c2nc(NC(=O)c3cc(NC(=O)CCNC(=O)c4nc(NC(=O)CCCNC(=O)c5cc(NC(=O)c6nc(NC(=O)CCNC(=O)c7cc(NC(=O)c8nccn8C)cn7C)cn6C)cn5C)cn4C)cn3C)cn2C)cc1 [Compound B-135],6.30 to 7.00,> 7.00
Cn1cc(NC(=O)c2nc(NC(=O)CCNC(=O)c3cc(NC(=O)c4nccn4C)cn3C)cn2C)cc1C(=O)NCCCC(=O)Nc1cn(C)c(C(=O)NCCC(=O)Nc2cc(C(=O)Nc3cn(C)c(C(=O)NCCC(=O)NCC#Cc4ccccc4)n3)n(C)c2)n1 [Compound B-136],6.30 to 7.00,6.30 to 7.00
Cn1cc(NC(=O)c2nc(NC(=O)CCNC(=O)c3cc(NC(=O)c4nccn4C)cn3C)cn2C)cc1C(=O)NCCCC(=O)Nc1cn(C)c(C(=O)NCCC(=O)Nc2cc(C(=O)Nc3cn(C)c(C(=O)NCCC(=O)N4CCC(C5CNC5)CC4)n3)n(C)c2)n1 [Compound B-142],6.00 to 6.30,6.30 to 7.00
CN1CC(C2CCN(C(=O)CCNC(=O)c3nc(NC(=O)c4cc(NC(=O)CCNC(=O)c5nc(NC(=O)CCCNC(=O)c6cc(NC(=O)c7nc(NC(=O)CCNC(=O)c8cc(NC(=O)c9nccn9C)cn8C)cn7C)cn6C)cn5C)cn4C)cn3C)CC2)C1 [Compound B-143],6.30 to 7.00,6.30 to 7.00
CCN(CC)CCCC[C@H](NC(C)=O)C(=O)Nc1ccc(OCCOCCOCCOCCOCCOCCOCCNC(=O)CCNC(=O)c2nc(NC(=O)c3cc(NC(=O)CCNC(=O)c4nc(NC(=O)CCCNC(=O)c5cc(NC(=O)c6nc(NC(=O)CCNC(=O)c7cc(NC(=O)c8nccn8C)cn7C)cn6C)cn5C)cn4C)cn3C)cn2C)cc1 [Compound B-144],6.00 to 6.30,6.00 to 6.30
CCN(CC)CCCC[C@H](NC(C)=O)C(=O)Nc1ccc(OCCOCCOCCOCCOCCNC(=O)CCNC(=O)c2nc(NC(=O)c3cc(NC(=O)CCNC(=O)c4nc(NC(=O)CCCNC(=O)c5cc(NC(=O)c6nc(NC(=O)CCNC(=O)c7cc(NC(=O)c8nccn8C)cn7C)cn6C)cn5C)cn4C)cn3C)cn2C)cc1 [Compound B-146],6.30 to 7.00,6.30 to 7.00
CCN(CC)CCCC[C@H](NC(C)=O)C(=O)Nc1ccc(OCCOCCOCCNC(=O)CCNC(=O)c2nc(NC(=O)c3cc(NC(=O)CCNC(=O)c4nc(NC(=O)CCCNC(=O)c5cc(NC(=O)c6nc(NC(=O)CCNC(=O)c7cc(NC(=O)c8nccn8C)cn7C)cn6C)cn5C)cn4C)cn3C)cn2C)cc1 [Compound B-147],6.30 to 7.00,6.30 to 7.00
CCN(CC)CCCC[C@@H](NC(C)=O)C(=O)Nc1ccc(OCCOCCOCCNC(=O)CCNC(=O)c2nc(NC(=O)c3cc(NC(=O)CCNC(=O)c4nc(NC(=O)CCCNC(=O)c5cc(NC(=O)c6nc(NC(=O)CCNC(=O)c7cc(NC(=O)c8nccn8C)cn7C)cn6C)cn5C)cn4C)cn3C)cn2C)cc1 [Compound B-148],6.30 to 7.00,< 6.00
CCN(CC)CCCC[C@H](NC(C)=O)C(=O)Nc1ccc(CNC(=O)CCNC(=O)c2nc(NC(=O)c3cc(NC(=O)CCNC(=O)c4nc(NC(=O)CCCNC(=O)c5cc(NC(=O)c6nc(NC(=O)CCNC(=O)c7cc(NC(=O)c8nccn8C)cn7C)cn6C)cn5C)cn4C)cn3C)cn2C)cc1 [Compound B-149],< 6.00,6.30 to 7.00
Cn1cc(NC(=O)c2nc(NC(=O)CCNC(=O)c3cc(NC(=O)c4nccn4C)cn3C)cn2C)cc1C(=O)NCCCC(=O)Nc1cn(C)c(C(=O)NCCC(=O)Nc2cc(C(=O)Nc3cn(C)c(C(=O)NCCC(=O)N[C@@H](CCCNC(=N)N)C(=O)N[C@@H](CCCNC(=N)N)C(=O)NCCCCN=[N+]=[N-])n3)n(C)c2)n1 [Compound B-150],< 6.00,< 6.00
Cn1cc(NC(=O)c2nc(NC(=O)CCNC(=O)c3cc(NC(=O)c4nccn4C)cn3C)cn2C)cc1C(=O)NCCCC(=O)Nc1cn(C)c(C(=O)NCCC(=O)Nc2cc(C(=O)Nc3cn(C)c(C(=O)NCCC(=O)N[C@@H](CCCNC(=N)N)C(=O)N[C@@H](CCCNC(=N)N)C(=O)N[C@@H](CCCNC(=N)N)C(=O)N[C@@H](CCCNC(=N)N)C(=O)NCCCCN=[N+]=[N-])n3)n(C)c2)n1 [Compound B-151],6.30 to 7.00,< 6.00
Cn1cc(NC(=O)c2nc(NC(=O)CCNC(=O)c3cc(NC(=O)c4nccn4C)cn3C)cn2C)cc1C(=O)NCCCC(=O)Nc1cn(C)c(C(=O)NCCC(=O)Nc2cc(C(=O)Nc3cn(C)c(C(=O)NCCC(=O)NCCCCC(=O)N[C@@H](CCCNC(=N)N)C(=O)N[C@@H](CCCNC(=N)N)C(=O)NCCCCN=[N+]=[N-])n3)n(C)c2)n1 [Compound B-154],6.30 to 7.00,< 6.00
COCCOCCOCCOCCN(CCCCCn1cc(NC(=O)CCNC(=O)c2nc(NC(=O)CCCNC(=O)c3cc(NC(=O)c4nc(NC(=O)CCNC(=O)c5cc(NC(=O)c6nccn6C)cn5C)cn4C)cn3C)cn2C)cc1C(=O)Nc1cn(C)c(C(=O)NCCC(=O)N2CCC(N3CCNCC3)CC2)n1)CCOCCOCCOCCOC [Compound B-158],< 6.00,< 6.00
CCCNC(=O)CCNC(=O)c1nc(NC(=O)c2cc(NC(=O)CCNC(=O)c3nc(NC(=O)CCCNC(=O)c4cc(NC(=O)c5nc(NC(=O)CCNC(=O)c6cc(NC(=O)c7nccn7C)cn6C)cn5C)cn4CCCCCN(CCOCCOCCOCCOC)CCOCCOCCOCCOC)cn3C)cn2C)cn1C [Compound B-161],6.30 to 7.00,6.00 to 6.30
CCCNC(=O)CCNC(=O)c1nc(NC(=O)c2cc(NC(=O)CCNC(=O)c3nc(NC(=O)CCCNC(=O)c4cc(NC(=O)c5nc(NC(=O)CCNC(=O)c6cc(NC(=O)c7nccn7C)cn6C)cn5C)cn4CCCCC(=O)N(CCOCCOCCOCCOC)CCOCCOCCOCCOC)cn3C)cn2C)cn1C [Compound B-163],6.30 to 7.00,6.30 to 7.00
COCCOCCOCCOCCN(CCOCCOCCOCCOC)C(=O)CCCCn1cc(NC(=O)c2nc(NC(=O)CCNC(=O)c3cc(NC(=O)c4nccn4C)cn3C)cn2C)cc1C(=O)NCCCC(=O)Nc1cn(C)c(C(=O)NCCC(=O)Nc2cc(C(=O)Nc3cn(C)c(C(=O)NCCC(=O)N4CCC(N5CCNCC5)CC4)n3)n(C)c2)n1 [Compound B-164],6.30 to 7.00,6.00 to 6.30
